Assay results: ChEMBL document CHEMBL1124894, “Synthesis and quantitative structure-activity relationships of diclofenac analogues” (J Med Chem, 1990)

How the values were obtained:
[1] = Partition coefficient (logD7.4); conditions: octanol/water, pH 7.4
[2] = Dissociation constant (pKa); assay type: physicochemical
[3] = target: T1, Cyclooxygenase (Bos taurus, UniProt O62664+O62698)
T1 sequence (O62664 whole entry): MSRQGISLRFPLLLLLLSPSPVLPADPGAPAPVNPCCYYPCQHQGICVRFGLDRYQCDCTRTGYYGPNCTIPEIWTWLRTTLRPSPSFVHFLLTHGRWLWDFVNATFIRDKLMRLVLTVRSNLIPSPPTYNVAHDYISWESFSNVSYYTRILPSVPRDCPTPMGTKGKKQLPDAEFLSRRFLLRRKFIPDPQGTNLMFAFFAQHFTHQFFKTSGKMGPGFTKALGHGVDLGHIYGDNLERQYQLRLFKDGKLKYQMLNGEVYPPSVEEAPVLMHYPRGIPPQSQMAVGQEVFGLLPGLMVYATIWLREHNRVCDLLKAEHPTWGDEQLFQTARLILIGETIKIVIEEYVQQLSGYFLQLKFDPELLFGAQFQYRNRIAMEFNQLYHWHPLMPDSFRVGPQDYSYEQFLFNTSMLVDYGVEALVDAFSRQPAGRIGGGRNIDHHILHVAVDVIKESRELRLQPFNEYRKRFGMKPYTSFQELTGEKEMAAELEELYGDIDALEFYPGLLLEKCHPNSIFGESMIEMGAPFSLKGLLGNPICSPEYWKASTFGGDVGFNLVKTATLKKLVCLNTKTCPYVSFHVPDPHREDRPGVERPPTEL
T1 sequence (O62698 whole entry): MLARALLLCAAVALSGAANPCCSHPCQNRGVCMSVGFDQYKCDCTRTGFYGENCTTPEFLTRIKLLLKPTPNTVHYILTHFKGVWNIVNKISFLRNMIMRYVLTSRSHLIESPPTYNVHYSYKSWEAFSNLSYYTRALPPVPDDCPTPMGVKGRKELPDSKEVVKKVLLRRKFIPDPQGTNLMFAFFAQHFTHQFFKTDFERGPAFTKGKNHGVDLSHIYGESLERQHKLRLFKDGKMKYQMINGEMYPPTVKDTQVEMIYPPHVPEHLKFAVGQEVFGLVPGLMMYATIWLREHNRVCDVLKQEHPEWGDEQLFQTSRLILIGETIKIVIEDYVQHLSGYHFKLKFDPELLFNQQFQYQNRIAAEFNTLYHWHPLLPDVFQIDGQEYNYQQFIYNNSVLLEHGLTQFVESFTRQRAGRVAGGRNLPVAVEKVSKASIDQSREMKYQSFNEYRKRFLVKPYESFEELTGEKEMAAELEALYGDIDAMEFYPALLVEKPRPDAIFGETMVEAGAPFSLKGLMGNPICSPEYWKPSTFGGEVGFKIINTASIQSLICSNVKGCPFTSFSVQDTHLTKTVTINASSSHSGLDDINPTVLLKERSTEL
Description: In vitro inhibition of bovine prostaglandin G/H synthase, using bovine seminal vesicle microsomal preparations; IC50 in umol/L

[4] = species on record: Rattus norvegicus
Description: Inhibition of inflammatory hind paw edema, induced by Mycobacterium butyricum in rats; ED40 in umol/kg po

Structure (SMILES) | logD [1] | pKa [2] | log IC50 [3] | Log 1/ED40 [4]
O=C(O)Cc1ccccc1Nc1cccc(Cl)c1Cl | 1.66 | 4.2 | 1 | –
O=C([O-])Cc1ccccc1Nc1c(Cl)cccc1Br.[Na+] | 1.44 | 4.2 | 0.28 | -0.14
Cc1cc(C)c(C)c(Nc2ccccc2CC(=O)O)c1C | 1.95 | 4.2 | 0.78 | -1.25
Cc1cccc(Nc2ccccc2CC(=O)O)c1C | 1.03 | – | 0.3 | -1.59
O=C(O)Cc1ccccc1Nc1cc(Cl)cc(Cl)c1 | 1.98 | 4.31 | 1.9 | -2.23
O=C(O)Cc1ccccc1Nc1ccc(Cl)cc1Cl | 1.33 | – | 1.85 | -1.23
Cc1cccc(Nc2ccccc2CC(=O)O)c1Cl | 1.59 | – | 1.3 | -0.26
O=C([O-])Cc1ccccc1Nc1c(F)cccc1F.[Na+] | 0.26 | 4.09 | 2.36 | -2.24
COc1cc(Cl)c(Nc2ccccc2CC(=O)O)c(Cl)c1 | 1.24 | 4.2 | 0 | -0.49
Cc1cc(C)c(C)c(Nc2ccc(Cl)cc2CC(=O)O)c1C | 2.93 | – | 1.82 | -1.2
Cc1ccc(Cl)c(Nc2ccccc2CC(=O)[O-])c1Cl.[Na+] | – | – | – | -0.65
O=C([O-])Cc1ccccc1Nc1c(Cl)cc(F)cc1Cl.[Na+] | 1.27 | – | 0.05 | -0.47
COc1c(O)cc(Cl)c(Nc2ccccc2CC(=O)O)c1Cl | 0.51 | – | 1.86 | -2.47
Cc1cccc(Cl)c1Nc1ccccc1CC(=O)O | 1.17 | 4.2 | 0 | -0.74
CCc1cccc(CC)c1Nc1ccccc1CC(=O)O | 1.91 | – | 1.83 | -1.55
Cc1cccc(C)c1Nc1ccccc1CC(=O)O | 1.21 | 4.07 | 0.78 | -0.29
COc1ccc(Cl)c(Nc2ccccc2CC(=O)O)c1Cl | 1.18 | 3.95 | 1.04 | -0.96
O=C(O)Cc1ccccc1Nc1c(Cl)cccc1I | 1.64 | 4.24 | 0.3 | -0.11

Structure (SMILES) | logD [1] | pKa [2] | log IC50 [3] | Log 1/ED40 [4]
O=C(O)Cc1ccccc1Nc1ccc(Cl)c(Cl)c1 | 1.8 | 4.3 | 2.15 | -2.53
O=C([O-])Cc1ccccc1Nc1c(F)cccc1Cl.[Na+] | 0.56 | – | 1.75 | -0.8
O=C([O-])Cc1cc(F)ccc1Nc1c(Cl)cccc1Cl.[Na+] | 1.48 | 4.02 | 0.13 | 0.05
O=C([O-])Cc1cc(Cl)ccc1Nc1c(Cl)cccc1Cl.[Na+] | 1.97 | – | 0.1 | 0.07
O=C([O-])Cc1ccccc1Nc1ccc(F)cc1F.[Na+] | 0.55 | – | 2.01 | -2.85
Cc1c(Cl)cccc1Nc1ccccc1CC(=O)O | 1.54 | 4.3 | 1.04 | -0.86
O=C(O)Cc1c(Br)cccc1Nc1c(Cl)cccc1Cl | 1.87 | – | 1.18 | -3.43
O=C(O)Cc1ccccc1Nc1ccccc1Cl | 0.91 | – | 2.31 | -1.76
O=C([O-])Cc1c(O)cccc1Nc1c(Cl)cccc1Cl.[Na+] | 1.73 | 4.48 | 2.33 | –
O=C([O-])Cc1cc(F)ccc1Nc1c(Cl)cc(F)cc1Cl.[Na+] | 1.62 | – | 0.25 | 0.25
O=C(O)Cc1ccccc1Nc1cc(Cl)ccc1Cl | 1.64 | 4.1 | 2 | -1.01
O=C(O)Cc1ccccc1Nc1ccccc1 | 0.19 | 4.1 | 2.46 | -2.94
COc1cc(Cl)c(Nc2ccccc2CC(=O)O)c(Cl)c1O [3'-HYDROXY-4'-METHOXY-DICLOFENAC] | 0.25 | 4.13 | 2.47 | -2.47
O=C(O)Cc1ccccc1Nc1c(Cl)ccc(O)c1Cl [3'-HYDROXY-DICLOFENAC] | 0.72 | – | 1 | -1.51
O=C(O)Cc1cc(O)ccc1Nc1c(Cl)cc(O)cc1Cl [4',5-DIHYDROXY-DICLOFENAC] | 0.27 | – | 3.04 | -2.78
O=C(O)Cc1ccccc1Nc1c(Cl)cc(O)cc1Cl [4'-HYDROXY-DICLOFENAC] | 0.7 | 4.4 | 2.15 | -0.98
O=C(O)Cc1cc(O)ccc1Nc1c(Cl)cccc1Cl [5-HYDROXY-DICLOFENAC] | 0.76 | 4.22 | 3.35 | -0.98
COc1ccc2c(c1)c(CC(=O)O)c(C)n2C(=O)c1ccc(Cl)cc1 [INDOMETHACIN] | 1 | – | – | –
